Source: patent US4684664A, “Derivatives of β-(4-isocyano-1,2,3,4-diepoxycyclopentyl) acrylic acid” (Kureha Kagaku Kogyo Kabushiki Kaisha, priority 1984, dated 1987)
≈ marks a conversion by molar mass, not a printed value.

Assays:
Format in all cases: cell-based
[1] = system: Micrococcus luteus ATCC 9341; assay: Antibacterial activity, agar-dilution MIC, organism No. 25; details: Organism No. 25, bouillon-agar
Procedure, shortened: (§1)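 Specimen is incorporated into bouillon-agar medium at graded levels and the organisms are tested on these plates. The lowest level preventing growth is taken as the MIC (μg/ml of medium).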

[2] = system: Salmonella typhimurium IID 971; assay: Antibacterial activity, agar-dilution MIC, organism No. 8; details: Organism No. 8, bouillon-agar
Procedure, shortened: as §1

[3] = system: Pseudomonas aeruginosa NCTC 10490; assay: Antibacterial activity, agar-dilution MIC, organism No. 16; details: Organism No. 16, bouillon-agar
Procedure, shortened: as §1

[4] = system: Streptococcus pyogenes Cook; assay: Antibacterial activity, agar-dilution MIC, organism No. 4; details: Organism No. 4, bouillon-agar
Procedure, shortened: as §1

[5] = system: Enterobacter cloacae 963; assay: Antibacterial activity, agar-dilution MIC, organism No. 24; details: Organism No. 24, bouillon-agar
Procedure, shortened: as §1

[6] = system: Proteus mirabilis IFO 3849; assay: Antibacterial activity, agar-dilution MIC, organism No. 19; details: Organism No. 19, bouillon-agar
Procedure, shortened: as §1

[7] = system: Pseudomonas aeruginosa PAO 1; assay: Antibacterial activity, agar-dilution MIC, organism No. 17; details: Organism No. 17, bouillon-agar
Procedure, shortened: as §1

[8] = system: Streptococcus faecium IFO 3826; assay: Antibacterial activity, agar-dilution MIC, organism No. 27; details: Organism No. 27, bouillon-agar
Procedure, shortened: as §1

[9] = system: Salmonella paratyphi-A 1015; assay: Antibacterial activity, agar-dilution MIC, organism No. 10
Procedure, shortened: as §1

[10] = system: Klebsiella pneumoniae PCI-602; assay: Antibacterial activity, agar-dilution MIC, organism No. 7; details: Organism No. 7, bouillon-agar
Procedure, shortened: as §1

[11] = system: Pseudomonas aeruginosa IFO 3445; assay: Antibacterial activity, agar-dilution MIC, organism No. 15; details: Organism No. 15, bouillon-agar
Procedure, shortened: as §1

[12] = system: Aspergillus niger IFO 6342; assay: Antifungal activity, agar-dilution MIC, organism No. 30; details: Organism No. 30, bouillon-agar
Procedure, shortened: as §1

[13] = system: Proteus morganii IFO 3848; assay: Antibacterial activity, agar-dilution MIC, organism No. 18; details: Organism No. 18, bouillon-agar
Procedure, shortened: as §1

[14] = system: Serratia marcescens IAM 1184; assay: Antibacterial activity, agar-dilution MIC, organism No. 13; details: Organism No. 13, bouillon-agar
Procedure, shortened: as §1

[15] = system: Enterobacter aerogenes ATCC 13048; assay: Antibacterial activity, agar-dilution MIC, organism No. 23; details: Organism No. 23, bouillon-agar
Procedure, shortened: as §1

[16] = system: Proteus vulgaris OX-19; assay: Antibacterial activity, agar-dilution MIC, organism No. 20; details: Organism No. 20, bouillon-agar
Procedure, shortened: as §1

[17] = system: Salmonella enteritidis G 14; assay: Antibacterial activity, agar-dilution MIC, organism No. 12; details: Organism No. 12, bouillon-agar
Procedure, shortened: as §1

[18] = system: Staphylococcus aureus Terajima; assay: Antibacterial activity, agar-dilution MIC, organism No. 2; details: Organism No. 2, bouillon-agar
Procedure, shortened: as §1

[19] = system: Staphylococcus aureus MS 353; assay: Antibacterial activity, agar-dilution MIC, organism No. 3; details: Organism No. 3, bouillon-agar
Procedure, shortened: as §1

[20] = system: Proteus vulgaris HX-19; assay: Antibacterial activity, agar-dilution MIC, organism No. 21; details: Organism No. 21, bouillon-agar
Procedure, shortened: as §1

[21] = system: Mycoplasma pneumoniae IID817; assay: Antimycoplasmal activity, MIC by phenol red colour change, organism No. 28; details: Organism No. 28, PPLO broth + 1% glucose, 37° C.
Method: Mycoplasma pneumoniae IID817 was used as the test microorganism in a culture medium prepared by adding 1% of glucose to "PPLO broth (manufactured by Difco Co.) liquid culture medium" at 37° C. with phenol red as an indicator, thereby culturing the test microorganism.

[22] = system: Escherichia coli NIHJ-JC-2; assay: Antibacterial activity, agar-dilution MIC, organism No. 5; details: Organism No. 5, bouillon-agar
Procedure, shortened: as §1

[23] = system: Escherichia coli K12 C600 IAM 1264; assay: Antibacterial activity, agar-dilution MIC, organism No. 6; details: Organism No. 6, bouillon-agar
Procedure, shortened: as §1

[24] = system: Staphylococcus aureus FDA 209PJc-1; assay: Antibacterial activity, agar-dilution MIC, organism No. 1; details: Organism No. 1, bouillon-agar
Procedure, shortened: as §1

[25] = system: Bacillus subtilis ATCC 6633; assay: Antibacterial activity, agar-dilution MIC, organism No. 14; details: Organism No. 14, bouillon-agar
Procedure, shortened: as §1

[26] = system: Proteus rettgeri IFO 3850; assay: Antibacterial activity, agar-dilution MIC, organism No. 22; details: Organism No. 22, bouillon-agar
Procedure, shortened: as §1

[27] = system: Salmonella typhi 901; assay: Antibacterial activity, agar-dilution MIC, organism No. 9
Procedure, shortened: as §1

[28] = system: Streptococcus pyogenes IFO 3340; assay: Antibacterial activity, agar-dilution MIC, organism No. 26; details: Organism No. 26, bouillon-agar
Procedure, shortened: as §1

[29] = system: Candida albicans IAM 4905; assay: Antifungal activity, agar-dilution MIC, organism No. 29; details: Organism No. 29, bouillon-agar
Procedure, shortened: as §1

[30] = system: Salmonella shottmuelleri 8006; assay: Antibacterial activity, agar-dilution MIC, organism No. 11; details: Organism No. 11, bouillon-agar
Procedure, shortened: as §1

[C-]#[N+]C12CC3(/C=C/C(=O)Nc4ccc(SC)cc4)OC3C1O2 (stereo not drawn) [compound 76]
Minimum Inhibitory Concentration [1]: 50 µg/mL
Minimum Inhibitory Concentration [2]: > 200 µg/mL
Minimum Inhibitory Concentration [3]: > 200 µg/mL
Minimum Inhibitory Concentration [4]: 100 µg/mL
Minimum Inhibitory Concentration [5]: 200 µg/mL
Minimum Inhibitory Concentration [6]: > 200 µg/mL
Minimum Inhibitory Concentration [7]: > 200 µg/mL
Minimum Inhibitory Concentration [8]: 1.56 µg/mL
Minimum Inhibitory Concentration ([9]; Organism No. 10, bouillon-agar): 0.78 µg/mL
Minimum Inhibitory Concentration [10]: 0.78 µg/mL
Minimum Inhibitory Concentration [11]: > 200 µg/mL
Minimum Inhibitory Concentration [12]: 100 µg/mL
Minimum Inhibitory Concentration [13]: 3.13 µg/mL
Minimum Inhibitory Concentration [14]: > 200 µg/mL
Minimum Inhibitory Concentration [15]: > 200 µg/mL
Minimum Inhibitory Concentration [16]: 1.56 µg/mL
Minimum Inhibitory Concentration [17]: > 200 µg/mL
Minimum Inhibitory Concentration [18]: 1.56 µg/mL
Minimum Inhibitory Concentration [19]: 0.78 µg/mL
Minimum Inhibitory Concentration [20]: 0.78 µg/mL
Minimum Inhibitory Concentration (MIC) [21]: < 0.2
Minimum Inhibitory Concentration [22]: > 200 µg/mL
Minimum Inhibitory Concentration [23]: > 200 µg/mL
Minimum Inhibitory Concentration [24]: 0.39 µg/mL
Minimum Inhibitory Concentration [25]: 12.5 µg/mL
Minimum Inhibitory Concentration [26]: 100 µg/mL
Minimum Inhibitory Concentration ([27]; Organism No. 9, bouillon-agar): 25 µg/mL
Minimum Inhibitory Concentration [28]: 1.56 µg/mL
Minimum Inhibitory Concentration [29]: 25 µg/mL
Minimum Inhibitory Concentration [30]: 1.56 µg/mL

[C-]#[N+]C12CC3(/C=C/C(=O)Nc4cc(C(=O)OC)ccc4OC)OC3C1O2 (stereo not drawn) [compound 77]
MIC ([1]; Micrococcus luteus, ATCC9341, read-out: Minimum Inhibitory Concentration): 50 µg/mL (≈ 140 µM)
MIC ([2]; Salmonella enterica, read-out: Minimum Inhibitory Concentration): > 200 µg/mL
MIC ([3]; Pseudomonas aeruginosa, NCTC10490, read-out: Minimum Inhibitory Concentration): > 200 µg/mL
MIC ([4]; Streptococcus pyogenes, read-out: Minimum Inhibitory Concentration): > 200 µg/mL
MIC ([5]; Enterobacter cloacae, 963, read-out: Minimum Inhibitory Concentration): > 200 µg/mL
MIC ([6]; Proteus mirabilis, IFO3849, read-out: Minimum Inhibitory Concentration): > 200 µg/mL
MIC ([7]; Pseudomonas aeruginosa, PAO1, read-out: Minimum Inhibitory Concentration): > 200 µg/mL
MIC ([8]; Enterococcus faecium, IFO3826, read-out: Minimum Inhibitory Concentration): > 200 µg/mL
MIC ([9]; Salmonella enterica, PARATYPHI, read-out: Minimum Inhibitory Concentration): > 200 µg/mL
MIC ([10]; Klebsiella pneumoniae, PCI602, read-out: Minimum Inhibitory Concentration): 100 µg/mL (≈ 281 µM)
MIC ([11]; Pseudomonas aeruginosa, IFO3445, read-out: Minimum Inhibitory Concentration): > 200 µg/mL
MIC ([12]; Aspergillus niger, IFO6342, read-out: Minimum Inhibitory Concentration): 200 µg/mL (≈ 561 µM)
MIC ([13]; Morganella morganii, IFO3848, read-out: Minimum Inhibitory Concentration): 200 µg/mL (≈ 561 µM)
MIC ([14]; Serratia marcescens, IAM1184, read-out: Minimum Inhibitory Concentration): > 200 µg/mL
MIC ([15]; Klebsiella aerogenes, ATCC13048, read-out: Minimum Inhibitory Concentration): > 200 µg/mL
MIC ([16]; Proteus vulgaris, OX19, read-out: Minimum Inhibitory Concentration): > 200 µg/mL
MIC ([17]; Salmonella enterica, ENTERITIDIS, read-out: Minimum Inhibitory Concentration): > 200 µg/mL
MIC ([18]; Staphylococcus aureus, read-out: Minimum Inhibitory Concentration): > 200 µg/mL
MIC ([19]; Staphylococcus aureus, MS353, read-out: Minimum Inhibitory Concentration): > 200 µg/mL
MIC ([20]; Proteus vulgaris, HX19, read-out: Minimum Inhibitory Concentration): 100 µg/mL (≈ 281 µM)
MIC ([21]; Mycoplasma, IID817, read-out: Minimum Inhibitory Concentration (MIC)): 3.13 µg/mL
MIC ([22]; Escherichia coli, NIHJJC2, read-out: Minimum Inhibitory Concentration): > 200 µg/mL
MIC ([23]; Escherichia coli, IAM1264, read-out: Minimum Inhibitory Concentration): > 200 µg/mL
MIC ([24]; Staphylococcus aureus, FDA209PJC1, read-out: Minimum Inhibitory Concentration): > 200 µg/mL
MIC ([25]; Bacillus subtilis, ATCC6633, read-out: Minimum Inhibitory Concentration): 100 µg/mL (≈ 281 µM)
MIC ([26]; Providencia rettgeri, IFO3850, read-out: Minimum Inhibitory Concentration): 200 µg/mL (≈ 561 µM)
MIC ([27]; Salmonella enterica, TYPHI, read-out: Minimum Inhibitory Concentration): > 200 µg/mL
MIC ([28]; Streptococcus pyogenes, IFO3340, read-out: Minimum Inhibitory Concentration): 6.25 µg/mL (≈ 17.5 µM)
MIC ([29]; Candida albicans, IAM4905, read-out: Minimum Inhibitory Concentration): > 200 µg/mL
MIC ([30]; Salmonella, 8006, read-out: Minimum Inhibitory Concentration): > 200 µg/mL
